Data from patent US6410792B1, “Amide derivatives and methods for using the same as selective neuropeptide Y receptor antagonists” (Bayer Corporation, priority 1997, dated 2002).
Read-outs that look alike come from different tables or passages of the source.

Experiments:
[1] = target: T1, Human NPY1 receptor (Homo sapiens, UniProt P25929); assay: Human NPY1 receptor binding assay ([125I]PYY, SK-N-MC cells); settings: [125I]PYY, SK-N-MC cells; read-out: hNPYI IC50
T1 construct: host or cells: SK-N-MC cells
T1 sequence (P25929 1-384): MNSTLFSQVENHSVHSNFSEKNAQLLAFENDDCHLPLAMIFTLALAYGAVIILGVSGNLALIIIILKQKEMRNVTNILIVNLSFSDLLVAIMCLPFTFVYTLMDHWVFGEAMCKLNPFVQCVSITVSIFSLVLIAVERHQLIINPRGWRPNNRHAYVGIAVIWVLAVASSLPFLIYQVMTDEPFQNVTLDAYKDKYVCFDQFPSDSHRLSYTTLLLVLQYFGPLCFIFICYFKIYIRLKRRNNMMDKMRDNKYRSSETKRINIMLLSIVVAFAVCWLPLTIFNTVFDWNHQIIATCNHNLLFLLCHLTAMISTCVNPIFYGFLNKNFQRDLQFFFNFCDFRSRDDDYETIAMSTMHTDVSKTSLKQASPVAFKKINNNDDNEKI
Outline: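 Confluent SK-N-MC cells preincubated 30 min at room temperature in serum-free DMEM/25 mM HEPES pH 7.3 with BSA, bacitracin and PMSF, then incubated 3 h at room temperature with compound and ~50 pM [125I]PYY. Nonspecific binding defined with 1 μM NPY; bound radioactivity counted after Triton X-100 lysis.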

[2] = target: T2, Y2 receptor (Homo sapiens, UniProt P49146); assay: Y2 receptor binding assay ([125I]PYY, membrane protein); settings: [125I]PYY, membrane protein; read-out: hNPY2 IC50
T2 sequence (P49146 1-381): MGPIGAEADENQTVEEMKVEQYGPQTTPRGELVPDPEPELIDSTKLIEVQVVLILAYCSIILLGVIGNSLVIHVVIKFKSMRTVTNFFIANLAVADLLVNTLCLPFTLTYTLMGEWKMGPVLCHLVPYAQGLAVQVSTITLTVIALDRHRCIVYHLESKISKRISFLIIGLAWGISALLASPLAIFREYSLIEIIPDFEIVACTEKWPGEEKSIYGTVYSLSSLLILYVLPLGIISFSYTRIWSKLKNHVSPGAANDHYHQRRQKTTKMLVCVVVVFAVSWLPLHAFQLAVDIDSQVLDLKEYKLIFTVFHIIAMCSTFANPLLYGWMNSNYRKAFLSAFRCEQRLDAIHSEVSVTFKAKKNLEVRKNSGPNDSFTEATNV
Outline: (§1)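 Filtration binding with membrane protein and drug dilution, 2 h at room temperature with mixing, radioactivity counted by gamma or scintillation. Y2: 25 pM [125I]PYY in Krebs-Ringer bicarbonate pH 7.4 with 0.01% BSA, nonspecific by 1 μM NPY. Y4/PP1: 50 pM [125I]hPP in HEPES-buffered saline pH 7.4 with protease inhibitors and 0.3% BSA, nonspecific by 1 μM hPP.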

[3] = target: T3, Rat NPY5 receptor (Rattus norvegicus, UniProt Q63634); assay: Rat NPY5 receptor binding assay ([125I]PYY, membrane protein)
T3 sequence (Q63634 1-445): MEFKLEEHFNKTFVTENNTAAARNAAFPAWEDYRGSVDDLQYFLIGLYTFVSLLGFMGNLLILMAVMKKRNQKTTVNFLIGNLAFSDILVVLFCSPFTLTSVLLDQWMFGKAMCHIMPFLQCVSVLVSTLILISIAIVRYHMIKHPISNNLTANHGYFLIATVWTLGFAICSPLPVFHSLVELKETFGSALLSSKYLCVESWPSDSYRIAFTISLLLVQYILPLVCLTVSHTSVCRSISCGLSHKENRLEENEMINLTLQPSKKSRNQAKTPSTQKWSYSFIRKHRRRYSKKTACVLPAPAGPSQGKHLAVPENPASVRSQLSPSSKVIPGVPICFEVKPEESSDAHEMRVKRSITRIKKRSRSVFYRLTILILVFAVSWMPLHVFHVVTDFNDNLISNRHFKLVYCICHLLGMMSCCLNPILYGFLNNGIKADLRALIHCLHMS
Outline: (§2)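 Membrane protein was incubated with 75-100 pM porcine [125I]PYY and test compound for 2 hours at room temperature with constant mixing in pH 7.4 Tris buffer containing NaCl, KCl, CaCl2, MgSO4, 0.1% BSA and bacitracin. Nonspecific binding was defined with 1 μM PYY. Bound radioactivity was counted after filtration.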

[4] = target: human Y4/PP1 receptor (Homo sapiens, UniProt P50391); assay: Human Y4/PP1 receptor binding assay ([125I]human PP, membrane protein); settings: [125I]human PP, membrane protein; read-out: hNPY4 IC50
Chain of human Y4/PP1 receptor (P50391 whole entry): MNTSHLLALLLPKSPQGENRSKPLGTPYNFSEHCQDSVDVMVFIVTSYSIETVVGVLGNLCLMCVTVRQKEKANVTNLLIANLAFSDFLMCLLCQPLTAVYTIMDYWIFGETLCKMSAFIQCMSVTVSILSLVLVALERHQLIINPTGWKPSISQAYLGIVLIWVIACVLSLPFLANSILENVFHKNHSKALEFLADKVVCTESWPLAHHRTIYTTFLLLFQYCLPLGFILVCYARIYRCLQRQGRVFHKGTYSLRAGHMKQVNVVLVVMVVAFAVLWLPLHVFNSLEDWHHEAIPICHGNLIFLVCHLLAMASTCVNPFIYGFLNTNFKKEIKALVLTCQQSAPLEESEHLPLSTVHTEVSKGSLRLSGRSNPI
Outline: as §1

[5] = target: T4, Human NPY5 receptor (Homo sapiens, UniProt Q15761); assay: Human NPY5 receptor binding assay ([125I]PYY, membrane protein)
T4 sequence (Q15761 1-445): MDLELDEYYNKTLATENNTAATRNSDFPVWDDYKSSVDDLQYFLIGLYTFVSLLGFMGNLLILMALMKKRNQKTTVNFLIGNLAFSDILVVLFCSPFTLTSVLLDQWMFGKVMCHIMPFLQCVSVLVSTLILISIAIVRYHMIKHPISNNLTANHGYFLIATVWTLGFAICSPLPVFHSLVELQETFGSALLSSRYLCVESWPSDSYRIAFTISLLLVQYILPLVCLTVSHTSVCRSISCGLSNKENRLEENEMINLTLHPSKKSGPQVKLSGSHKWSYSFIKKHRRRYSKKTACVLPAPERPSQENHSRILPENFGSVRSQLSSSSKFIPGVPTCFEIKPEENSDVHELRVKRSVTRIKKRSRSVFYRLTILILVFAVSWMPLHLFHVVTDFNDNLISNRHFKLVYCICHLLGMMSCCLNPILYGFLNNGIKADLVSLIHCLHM
Outline: as §2

[6] = target: T3, Rat NPY5 receptor; assay: Rat NPY5 cyclase assay (in vitro functional assay, forskolin-stimulated adenylate cyclase, cAMP); type: cell-based; settings: 10 μM; percentage of forskolin-stimulated adenylate cyclase
Description: D. Rat NYP5 Cyclase Assay (In Vitro Functional Assay)
Cells stably expressing the rat NPY5 receptor are resuspended in serum-free DMEM containing 10 mM HEPES (pH 7.4) and 1 mM isobutylmethylxanthine (IBMX). […] forskolin and drug dilution are then added to the cells. After a 20 minute incubation of the samples at 37° C, the assay is stopped by placing the samples in boiling water for 3 minutes. The cAMP produced in each sample is quantitated with a radioimmunoassay kit (NEN DuPont). Data are expressed as a percentage of forskolin-stimulated adenylate cyclase.

[7] = [125I]PYY, read-out: rNPY5 IC50
[8] = [125I]PYY, read-out: hNPY5 IC50

Compound	IC50 [1]	IC50 [2]	IC50 ([3]; rNPY5 IC50, [125I]PYY)	IC50 [4]	melting point	IC50 ([5]; hNPY5 IC50, [125I]PYY)	IC50 [3, 7]	IC50 [5, 8]	rNPY5 % FSAC (10 μM) [6]
O=C(Nc1ccc(-c2ccccc2)cc1)C(c1ccccc1)N1CCC(n2c(=O)[nH]c3ccccc32)CC1 (stereo not shown) [Compound 312, N-Biphenyl-4-yl-2-[4-(2-oxo-2,3-dihydro-benzoimidazol-1-yl)-piperidin-1-yl]-2-phenyl-acetamide]	> 5 µM	> 5 µM	0.024 µM	> 5 µM	207 to 210 °C	0.032 µM	–	–	–
O=C(CN1CCC(n2c(=O)[nH]c3ccccc32)CC1)Nc1cccc2c1-c1ccccc1C2=O [Compound 308, 2-[4-(2-Oxo-2,3-dihydro-benzoimidazol-1-yl)-piperidin-1-yl]-N-(9-oxo-9H-fluoren-4-yl)-acetamide]	> 5 µM	> 5 µM	–	> 5 µM	205 °C	–	0.3 µM	0.36 µM	–
O=C(CN1CCCCC1)Nc1ccc(-c2ccccc2)cc1 [Compound 271, N-Biphenyl-4-yl-2-piperidin-1-yl-acetamide]	> 5 µM	> 5 µM	–	> 5 µM	102 to 103 °C	–	2.9 µM	5.4 µM	–
CC(C)OCCCNC(=O)CN1CCC(n2c(=O)[nH]c3ccccc32)CC1.Cl [Compound 283, N-(3-Isopropoxy-propyl)-2-[4-(2-oxo-2,3-dihydro-benzoimidazol-1-yl)-piperidin-1-yl]-acetamide; hydrochloride]	> 5 µM	> 5 µM	–	> 5 µM	237 to 238 °C	–	> 10 µM	> 10 µM	–
Cl.O=C(CN1CCC(n2c(=O)[nH]c3ccccc32)CC1)Nc1ccc2c(c1)C(=O)c1ccccc1-2 [Compound 306, 2-[4-(2-Oxo-2,3-dihydro-benzoimidazol-1-yl)-piperidin-1-yl]-N-(9-oxo-9H-fluoren-2-yl)-acetamide; hydrochloride]	> 5 µM	> 5 µM	–	> 5 µM	204 °C	–	0.035 µM	0.044 µM	–
CC(C(=O)Nc1ccc(C2CCCCC2)cc1)N1CCC(n2c(=O)[nH]c3ccccc32)CC1 (stereo not shown) [Compound 278, N-(4-Cyclohexyl-phenyl)-2-[4-(2-oxo-2,3-dihydro-benzoimidazol-1-yl)-piperidin-1-yl]-propionamide]	> 5 µM	> 5 µM	–	> 5 µM	148 to 150 °C	–	0.012 µM	0.028 µM	–
CN(C(=O)CN1CCC(n2c(=O)[nH]c3ccccc32)CC1)c1ccc(C2CCCCC2)cc1 [Compound 270, N-(4-Cyclohexyl-phenyl)-N-methyl-2-[4-(2-oxo-2,3-dihydro-benzoimidazol-1-yl)-piperidin-1-yl]-acetamide]	> 5 µM	> 5 µM	–	> 5 µM	250 to 253 °C	–	> 10 µM	> 10 µM	–
O=C(CN1CCC(n2c(=O)[nH]c3ccccc32)CC1)Nc1ccc2c(c1)-c1ccccc1C2=O [Compound 266, 2-[4-(2-Oxo-2,3-dihydro-benzoimidazol-1-yl)-piperidin-1-yl]-N-(9-oxo-9H-fluoren-3-yl)-acetamide]	> 5 µM	> 5 µM	–	> 5 µM	176 °C	–	0.0004 µM	0.0005 µM	–
Cl.O=C(CN1CCC(n2c(=O)[nH]c3ccccc32)CC1)Nc1ccc(C(=O)C(=O)c2ccccc2)cc1 [Compound 265]	–	–	–	–	–	–	–	–	90%
O=C(CN1CCN(c2ccccc2)CC1)Nc1ccc(C2CCCCC2)cc1 [Compound 272, N-(4-Cyclohexyl-phenyl)-2-(4-phenyl-piperazin-1-yl)-acetamide]	> 5 µM	> 5 µM	–	> 5 µM	195 to 196 °C	–	0.21 µM	0.117 µM	–
Cl.O=C(CN1CCC(n2c(=O)[nH]c3ccccc32)CC1)Nc1ccc2oc3ccccc3c2c1 [Compound 310, N-Dibenzofuran-2-yl-2-[4-(2-oxo-2,3-dihydro-benzoimidazol-1-yl)-piperidin-1-yl]-acetamide; hydrochloride]	> 5 µM	> 5 µM	–	> 5 µM	186 °C	–	0.034 µM	0.034 µM	–
CC(C(=O)Nc1ccc(C(C)(C)C)cc1)N1CCC(n2c(=O)[nH]c3ccccc32)CC1 (stereo not shown) [Compound 279]	> 5 µM	> 5 µM	–	> 5 µM	144 to 148 °C	–	0.068 µM	0.13 µM	–
O=C(CN1CCCCC1)Nc1ccc(C2CCCCC2)cc1 [Compound 252, N-(4-Cyclohexyl-phenyl)-2-(piperidine)-acetamide]	> 5 µM	> 5 µM	–	> 5 µM	118 to 119 °C	–	0.63 µM	0.94 µM	–
